Experimental data taken from ChEMBL document CHEMBL5247660, “The lipidation and glycosylation enabling bioactivity enhancement and structural change of antibacterial peptide G3” (Bioorg Med Chem Lett, 2023).
In brackets after ≈: the same amount, converted by molar mass. Activity calls are given as the source filed them. The calls are words filed in the database; no cut-off is given here. Residues, ends and D or L forms follow the SMILES beside them. *: point of attachment. βGlc = OC[C@H]1O[C@@H](*)[C@H](O)[C@@H](O)[C@@H]1O; βGal = OC[C@H]1O[C@@H](*)[C@H](O)[C@@H](O)[C@H]1O; Palmitoyl = CCCCCCCCCCCCCCCC(=O)*; Lauroyl = CCCCCCCCCCCC(=O)*; Octanoyl = CCCCCCCC(=O)*

Key:
Staphylococcus aureus [1] = assay: Antibacterial activity against Staphylococcus aureus assessed as bacterial growth inhibition; format: functional
Pseudomonas aeruginosa [2] = assay: Antibiofilm activity against Pseudomonas aeruginosa PAO1 assessed as inhibition of biofilm formation at 8 to 32 uM incubated for 24 hrs by microplate reader analysis relative to control; format: functional; details: dose 8-32 µM, read-out: MIC
Escherichia coli = assay: Antibacterial activity against Escherichia coli assessed as bacterial growth inhibition; format: functional
Pseudomonas aeruginosa [3] = assay: Antibiofilm activity against Pseudomonas aeruginosa PAO1 assessed as removal of mature biofilm at 32 uM incubated for 4 hrs at relative to control; format: functional
[4] = target: T1, PA-I galactophilic lectin (Pseudomonas aeruginosa (strain ATCC 15692 / PAO1 / 1C / PRS 101 / LMG12228)) (UniProt Q05097); assay: Binding affinity to Pseudomonas aeruginosa LecA assessed as change in enthalpy
T1 sequence (whole entry): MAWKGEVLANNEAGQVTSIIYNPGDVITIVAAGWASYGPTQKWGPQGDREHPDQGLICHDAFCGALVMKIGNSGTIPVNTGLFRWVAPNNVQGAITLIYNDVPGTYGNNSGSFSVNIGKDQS

Cell membrane = assay: Induction of outer membrane permeabilization in Pseudomonas aeruginosa PAO1 assessed as increase in NPN uptake at 8 to 32 uM by NPN-dye based fluorescence analysis; details: dose 8-32 µM
[5] = target: T2, PA-I galactophilic lectin (Pseudomonas aeruginosa (strain ATCC 15692 / PAO1 / 1C / PRS 101 / LMG12228), UniProt Q05097); assay: Binding affinity to Pseudomonas aeruginosa LecA assessed as dissociation constant
T2 sequence (Q05097 whole entry): T1 sequence (whole entry)

Pseudomonas aeruginosa [6] = assay: Antibacterial activity against Pseudomonas aeruginosa assessed as bacterial growth inhibition; format: functional
Pseudomonas aeruginosa [7] = assay: Antibiofilm activity against Pseudomonas aeruginosa PAO1 assessed as inhibition of biofilm formation at 32 uM incubated for 24 hrs by microplate reader analysis relative to control; format: functional
[8] = target: T1, PA-I galactophilic lectin (Pseudomonas aeruginosa (strain ATCC 15692 / PAO1 / 1C / PRS 101 / LMG12228)); assay: Binding affinity to Pseudomonas aeruginosa LecA assessed as change in entropy
Pseudomonas aeruginosa [9] = assay: Antibiofilm activity against Pseudomonas aeruginosa PAO1; format: functional, organism-based
Staphylococcus aureus [10] = assay: Antibacterial activity against methicillin-resistant Staphylococcus aureus assessed as bacterial growth inhibition; format: functional
[11] = Hemolytic activity in sheep RBC assessed as hemolysis at 128 uM; format: toxicity, cell-based, Ovis aries; details: erythrocyte
Pseudomonas aeruginosa [12] = assay: Antibiofilm activity against Pseudomonas aeruginosa PAO1 assessed as inhibition of biofilm formation ratio at 2 times of MIC concentration incubated for 24 hrs by microplate reader analysis relative to control; format: functional; design: scale not given: the % may be the effect or the level left
[13] = Hemolytic activity in sheep RBC assessed as hemolysis; format: toxicity, cell-based, Ovis aries; details: erythrocyte
Pseudomonas aeruginosa [14] = assay: Antibiofilm activity against Pseudomonas aeruginosa PAO1 assessed as inhibition of biofilm formation ratio at MIC concentration incubated for 24 hrs by microplate reader analysis relative to control; format: functional; design: scale not given: the % may be the effect or the level left
Pseudomonas aeruginosa [15] = assay: Antibiofilm activity against Pseudomonas aeruginosa PAO1 assessed as increase in biofilm inhibition ratio at half MIC concentration incubated for 24 hrs by microplate reader analysis relative to control; format: functional; design: scale not given: the % may be the effect or the level left
Pseudomonas aeruginosa [16] = assay: Antibiofilm activity against Pseudomonas aeruginosa PAO1 assessed as increase in biofilm inhibition ratio at 2 times of MIC concentration incubated for 24 hrs by microplate reader analysis relative to control; format: functional; design: scale not given: the % may be the effect or the level left
Pseudomonas aeruginosa [17] = assay: Antibiofilm activity against Pseudomonas aeruginosa PAO1 assessed as increase in biofilm inhibition ratio at MIC concentration incubated for 24 hrs by microplate reader analysis relative to control; format: functional; design: scale not given: the % may be the effect or the level left

Compound	MIC (Staphylococcus aureus [1])	Minimum biofilm inhibitory concentration (Pseudomonas aeruginosa [2])	MIC (Escherichia coli)	Activity (Pseudomonas aeruginosa [3])	deltaH [4]	Activity (Cell membrane)	Kd [5]	MIC (Pseudomonas aeruginosa [6])	MIC (Pseudomonas aeruginosa [7])	deltaS [8]	Activity (Pseudomonas aeruginosa [9])	MIC (Staphylococcus aureus [10])	Activity [11]	Activity (Pseudomonas aeruginosa [12])	Activity [13]	Activity (Pseudomonas aeruginosa [14])	Activity (Pseudomonas aeruginosa [15])	Activity (Pseudomonas aeruginosa [16])	Activity (Pseudomonas aeruginosa [17])
CC[C@H](C)[C@H](NC(=O)CN)C(=O)N[C@H](C(=O)N[C@@H](CCCCN)C(=O)N[C@@H](CCCCN)C(=O)N[C@H](C(=O)N[C@H](C(=O)N[C@@H](CCCCN)C(=O)N[C@@H](CCCCN)C(=O)N[C@H](C(=O)N[C@H](C(=O)N[C@@H](CCCCN)C(=O)N[C@@H](CCCCN)C(=O)N[C@H](C(=O)N[C@@H](CO[C@@H]1O[C@H](CO)[C@H](O)[C@H](O)[C@H]1O)C(N)=O)[C@@H](C)CC)[C@@H](C)CC)[C@@H](C)CC)[C@@H](C)CC)[C@@H](C)CC)[C@@H](C)CC (H-GIIKKIIKKIIKKIS(βGal)-NH2)	16 µM (≈ 30.2 µg/mL)	16 µM	32 µM (≈ 60.3 µg/mL)	62%	-23.9 kcal/mol	Active	21.1 µM	16 µM (≈ 30.2 µg/mL)	32 µM (≈ 60.3 µg/mL)	-246 J/mol/K	Active	32 µM (≈ 60.3 µg/mL)							
CC[C@H](C)[C@H](NC(=O)CN)C(=O)N[C@H](C(=O)N[C@@H](CCCCN)C(=O)N[C@@H](CCCCN)C(=O)N[C@H](C(=O)N[C@H](C(=O)N[C@@H](CCCCN)C(=O)N[C@@H](CCCCN)C(=O)N[C@H](C(=O)N[C@H](C(=O)N[C@@H](CCCCN)C(=O)N[C@@H](CCCCN)C(=O)N[C@H](C(=O)N[C@@H](CO[C@@H]1O[C@H](CO)[C@@H](O)[C@H](O)[C@H]1O)C(N)=O)[C@@H](C)CC)[C@@H](C)CC)[C@@H](C)CC)[C@@H](C)CC)[C@@H](C)CC)[C@@H](C)CC (H-GIIKKIIKKIIKKIS(βGlc)-NH2)	16 µM (≈ 30.2 µg/mL)	16 µM	32 µM (≈ 60.3 µg/mL)	71%		Active		16 µM (≈ 30.2 µg/mL)			Active	32 µM (≈ 60.3 µg/mL)							
CCCCCCCCCCCC(=O)NCC(=O)N[C@H](C(=O)N[C@H](C(=O)N[C@@H](CCCCN)C(=O)N[C@@H](CCCCN)C(=O)N[C@H](C(=O)N[C@H](C(=O)N[C@@H](CCCCN)C(=O)N[C@@H](CCCCN)C(=O)N[C@H](C(=O)N[C@H](C(=O)N[C@@H](CCCCN)C(=O)N[C@@H](CCCCN)C(=O)N[C@H](C(N)=O)[C@@H](C)CC)[C@@H](C)CC)[C@@H](C)CC)[C@@H](C)CC)[C@@H](C)CC)[C@@H](C)CC)[C@@H](C)CC (Lauroyl-GIIKKIIKKIIKKI-NH2)	4 µM (≈ 7.27 µg/mL)	16 µM	12 µM (≈ 21.8 µg/mL)			Active		16 µM (≈ 29.1 µg/mL)				12 µM (≈ 21.8 µg/mL)							
CCCCCCCC(=O)NCC(=O)N[C@H](C(=O)N[C@H](C(=O)N[C@@H](CCCCN)C(=O)N[C@@H](CCCCN)C(=O)N[C@H](C(=O)N[C@H](C(=O)N[C@@H](CCCCN)C(=O)N[C@@H](CCCCN)C(=O)N[C@H](C(=O)N[C@H](C(=O)N[C@@H](CCCCN)C(=O)N[C@@H](CCCCN)C(=O)N[C@H](C(N)=O)[C@@H](C)CC)[C@@H](C)CC)[C@@H](C)CC)[C@@H](C)CC)[C@@H](C)CC)[C@@H](C)CC)[C@@H](C)CC (Octanoyl-GIIKKIIKKIIKKI-NH2)	4 µM (≈ 7.05 µg/mL)	16 µM	4 µM (≈ 7.05 µg/mL)			Active		16 µM (≈ 28.2 µg/mL)				4 µM (≈ 7.05 µg/mL)	Toxic						
CCCCCCCC(=O)NCC(=O)N[C@H](C(=O)N[C@H](C(=O)N[C@@H](CCCCN)C(=O)N[C@@H](CCCCN)C(=O)N[C@H](C(=O)N[C@H](C(=O)N[C@@H](CCCCN)C(=O)N[C@@H](CCCCN)C(=O)N[C@H](C(=O)N[C@H](C(=O)N[C@@H](CCCCN)C(=O)N[C@@H](CCCCN)C(=O)N[C@H](C(=O)N[C@@H](CO[C@@H]1O[C@H](CO)[C@H](O)[C@H](O)[C@H]1O)C(N)=O)[C@@H](C)CC)[C@@H](C)CC)[C@@H](C)CC)[C@@H](C)CC)[C@@H](C)CC)[C@@H](C)CC)[C@@H](C)CC (Octanoyl-GIIKKIIKKIIKKIS(βGal)-NH2)	4 µM (≈ 8.04 µg/mL)	16 µM	4 µM (≈ 8.04 µg/mL)		-4.53 kcal/mol	Active	14.1 µM	16 µM (≈ 32.2 µg/mL)		29.4 J/mol/K	Active	4 µM (≈ 8.04 µg/mL)		71%	Dose-Dependent Effect	71%			
CCCCCCCC(=O)NCC(=O)N[C@H](C(=O)N[C@H](C(=O)N[C@@H](CCCCN)C(=O)N[C@@H](CCCCN)C(=O)N[C@H](C(=O)N[C@H](C(=O)N[C@@H](CCCCN)C(=O)N[C@@H](CCCCN)C(=O)N[C@H](C(=O)N[C@@H](CO[C@@H]1O[C@H](CO)[C@H](O)[C@H](O)[C@H]1O)C(N)=O)[C@@H](C)CC)[C@@H](C)CC)[C@@H](C)CC)[C@@H](C)CC)[C@@H](C)CC (Octanoyl-GIIKKIIKKIS(βGal)-NH2)	4 µM (≈ 6.11 µg/mL)	16 µM	12 µM (≈ 18.3 µg/mL)		-6.53 kcal/mol	Active	28 µM	16 µM (≈ 24.4 µg/mL)		-4.53 J/mol/K		4 µM (≈ 6.11 µg/mL)							
CCCCCCCCCCCCCCCC(=O)NCC(=O)N[C@H](C(=O)N[C@H](C(=O)N[C@@H](CCCCN)C(=O)N[C@@H](CCCCN)C(=O)N[C@H](C(=O)N[C@H](C(=O)N[C@@H](CCCCN)C(=O)N[C@@H](CCCCN)C(=O)N[C@H](C(=O)N[C@H](C(=O)N[C@@H](CCCCN)C(=O)N[C@@H](CCCCN)C(=O)N[C@H](C(N)=O)[C@@H](C)CC)[C@@H](C)CC)[C@@H](C)CC)[C@@H](C)CC)[C@@H](C)CC)[C@@H](C)CC)[C@@H](C)CC (Palmitoyl-GIIKKIIKKIIKKI-NH2)	16 µM (≈ 30 µg/mL)	16 µM	32 µM (≈ 60 µg/mL)			Active		32 µM (≈ 60 µg/mL)				32 µM (≈ 60 µg/mL)							
Ac-GIIKKIIKKIIKKI-NH2	4 µM	16 µM	12 µM			Active		32 µM				12 µM							
H-GIIKKIIKKIIKKI-NH2	4 µM	16 µM	8 µM			Active		16 µM				16 µM					45%	59%	46%
